Measured values published in US20210139610A1, “COMPOSITIONS AND METHODS FOR MEDIATING EPS” (priority 2018, published 2021).
“Also recorded” adds a separate entry of the source.

Assays:
genomic DNA / poly(dGdC) = assay: A260/295 absorbance ratio assay of B-DNA to Z-DNA conversion; format: biochemical
Procedure: In one aspect, the agents are administered in the absence of a DNAse. Left: Genomic DNA (2 μg/mL) was incubated with spermidine (spd:300 μM), HU (500 nM), a combination of both spd and HU for 2 h at 37° C. Incubation of gDNA with 3.6M NaCl was used as a positive Z-DNA control. Middle: gDNA (2 μg/mL) was incubated with increased concentrations of Cerium chloride (CeCl3) which is known to induce Z-DNA. Right: poly(dGdC) (1 μg) was incubated with either NaCl (3.6 M), chloroquine (100 μM), or a combination of both NaCl and chloroquine. […] The absorbance values at 260 nm and 295 nm were measured and the A260/295 ratio was calculated. A ratio >8.6 is indicative of B-DNA, while a value near 3.2 is indicative of Z-DNA.

[1] = system: Z-DNA and B-DNA in the NTHI biofilm extracellular matrix; assay: Immunofluorescence CLSM for Z-DNA / B-DNA in NTHI biofilms; format: cell-based, Non-typeable Haemophilus influenzae; conditions: 24 h biofilm + 16 h with agent (1 mM CeCl3; 1 μM chloroquine)
Procedure: FIG. 31: DNase degrades B-DNA, but not Z-DNA, within the biofilm extracellular matrix. DNase (Pulmozyme; 5 units) was added at 24 h after biofilm seeding to in vitro pre-formed NTHI biofilms.
FIG. 37: HMGB1 destabilizes Z-DNA structures in the biofilm extracellular matrix. Non-typeable Haemophilus influenzae biofilms were grown in supplemented BHI media in 8 well chambered coverglass slides at 37° C. and 5% CO2. After 24 h, biofilms were treated as indicated above. After 40 h, biofilms were washed, probed with primary antibodies directed against Z-DNA (light gray dots), a fluorescent secondary antibody, stained with DAPI (gray regions), and visualized via fluorescence microscopy.
FIGS. 50A-50B: Equilibrium shift of B-DNA to Z-DNA conversion alters biofilm formation. NTHI biofilms formed for 24 h were incubated with cerium chloride (CeCl3) or chloroquine for an additional 16 h and were probed with naive or anti-Z-DNA (white) by immunofluorescence CLSM.
FIGS. 51A-51B: Equilibrium shift of B-DNA to Z-DNA conversion alters biofilm formation. NTHI biofilms formed for 24 h were incubated with cerium chloride (CeCl3) (FIG. 51A) or chloroquine (FIG. 51B) for an additional 16 h. Z-DNA was measured by IF and CLSM using anti-Z-DNA and cells were stained with the membrane stain FM4-64. Bars represent the SEM. Statistical significance compared to control was assessed by paired t-tests, *P<0.05, **P<0.01.

preformed NTHI biofilms [2] = assay: Disruption of pre-formed NTHI biofilms (treatment after initial growth; LIVE/DEAD, CLSM, COMSTAT); format: cell-based, Non-typeable Haemophilus influenzae; conditions: 24 h biofilm + 16 h with CeCl3 or chloroquine
preformed NTHI biofilms [3] = assay: as above; format: cell-based, Non-typeable Haemophilus influenzae; conditions: 1% P11
Procedure: (FIG. 18A) Biofilm growth was initiated then maintained for 24 hrs then treated for 16 hrs with 0 (SBHI Control), 0.1%, 1%, and 5% (w/v) of Phoshocellulose (P11). (FIG. 18B) Biofilm growth was initiated then maintained for 40 hrs in the presence of 0 (sBHI Control), 0.1%, 1%, and 5% (w/v) of (P11). Biofilms were washed with saline and stained with LIVE/DEAD® stain. Images were analyzed by COMSTAT to calculate average thickness and biomass. All images were captured with a 63× objective.
21:65-7. Pulmozyme® was added either at seeding (biofilm prevention) or to pre-formed biofilms (biofilm disruption) (FIG. 6). The resultant biofilms were stained with LIVE/DEAD® and evaluated using CLSM and COMSTAT analysis.
To determine anti-biofilm activity of cation exchange resins on preformed biofilms (i.e. ability to disrupt an extant biofilm), NTHI growth was initiated and maintained for 24 hrs, then treated for 16 hrs with 0 (sBHI Control), 0.1, 1, or 5% (w/v) of P11 phosphocellulose (FIG. 18A). To determine the anti-biofilm activity of cation exchange resins to prevent biofilm formation, NTHI growth was initiated and maintained in the presence of 0 (sBHI Control), 0.1, 1, and 5% w/v of P11 phosphocellulose (FIG. 18B) or 5% (w/v) heparin sepharose (FIG. 19). Biofilms were washed with saline and stained with LIVE/DEAD®, visualized with confocal scanning microscopy (CSLM) and analyzed by COMSTAT to determine average thickness and biomass.

[4] = system: Non-typeable Haemophilus influenzae biofilms; assay: NTHI in vitro biofilm formation, additive present from seeding (LIVE/DEAD, CLSM, COMSTAT); format: cell-based; conditions: 1 mM exogenous spermidine plus DCHA 50 μM
Procedure: FIG. 14: Non-typeable Haemophilus influenzae biofilms were grown for 40 h in supplemented BHI medium containing additives as indicated below each bar in 8 well chambered coverglass slides at 37° C. and 5% CO2. Biofilms were washed, stained with LIVE/DEAD®, fixed, and imaged by CLSM. Biofilm parameters were quantified using COMSTAT software.
Dicyclohexylamine inhibits spermidine synthase via a competitive inhibition mechanism, i.e. through binding to the same site on the protein as the putrescine substrate. Applicants therefore hypothesized that dicyclohexylamine would inhibit NTHi biofilm development. […]

NTHI genomic DNA (gDNA) = assay: Protection of genomic DNA from DNase digestion (agarose gel); format: biochemical, Non-typeable Haemophilus influenzae; conditions: DNase 0.5 units
Procedure: (FIG. 7C) Increasing levels of spermidine (Spd) and HU, separately or together, were incubated with genomic DNA (2 μg/ml) for 1.5 h at 37° C., followed by treatment with Pulmozyme® for 20 min. DNA degradation was assayed using agarose gel electrophoresis. […] (FIG. 7D) Spd (300 μM) and HU (1 μM) were incubated with genomic DNA (2 μg/ml) for 40 h, followed by Pulmozyme® treatment for 20 min.
To test synergism in vitro, Applicants incubated NTHI genomic DNA (gDNA) with spermidine (10, 20, 50, or 100 μM) in the presence or absence of HU (50 or 100 nM) and DNase (0.5 units). Degradation was assessed by agarose gel electrophoresis and UV illumination.

NTHI biofilms = assay: Transwell assay: NTHI biofilm in basolateral chamber, P11 resin in apical chamber; format: cell-based, Non-typeable Haemophilus influenzae
Procedure: (FIG. 42A) NTHI biofilm growth was initiated at 37° C., 5% CO2 in the basolateral chamber of a transwell plate system whereas P11 resin was added to the apical chamber, and incubated for 16 h. (FIG. 42B) Biofilms were stained, fixed, visualized via CLSM, and analyzed by COMSTAT. […] (FIG. 42C) Spermidine (Spd, 300 μM) and HU (500 nM) were added at seeding.
To determine the effect of P11 sequestration of these molecules on bacterial biofilm formation, Applicants utilized a transwell system. NTHI growth was initiated in the basolateral chamber while P11 (1% w/v) was added to the apical chamber at seeding. At 16 h, the biofilms were washed and stained with LIVE/DEAD®, imaged using CLSM, and analyzed with COMSTAT. […] To determine whether P11 cation depletion included polyamines and/or DNABII proteins, NTHI growth was initiated in the basolateral chamber with the exogenous addition of 1 mM spermidine and 1 μM HU, while P11 was added at 1% w/v to the apical chamber.
To determine whether the decrease in biofilm formation was dependent on direct cellular contact, NTHI growth was initiated in the basal chamber of a transwell plate system that contained a 0.4 μm pore size within the membrane that separates the apical and basolateral chambers. This allows for the diffusion of small molecules e.g. proteins (DNABII), polyamines and divalent metal cations between the two chambers, but not bacterial cells. […] Biofilms were washed with saline and stained with LIVE/DEAD®, visualized with CSLM and analyzed by COMSTAT to determine average thickness and biomass.
To determine whether polyamines (spermidine) are depleted by P11 phosphocellulose without direct contact in the transwell system, NTHi growth was initiated in the basolateral chamber containing 0, 100, 500, or 1000 μM Spermidine, while 0 (sBHI control) or 1.5% (w/v) P11 phosphocellulose was added to the apical chamber and maintained for 16 hrs. Biofilms were washed with saline and stained with LIVE/DEAD®, visualized with CSLM and analyzed by COMSTAT to determine average thickness and biomass. […]

genomic DNA = assay: Spermidine sensitivity of nucleases on genomic DNA; format: biochemical; conditions: Spermidine titrated from 10 μM-10 mM
[5] = system: NTHI biofilms in the middle ear; assay: Chinchilla model of otitis media due to NTHI, middle ear biofilm scoring; format: in vivo; conditions: 5 μg to middle ears at 4 and 5 days post infection, scored 24 h later
Procedure: FIGS. 39A-39B: HMGB1 promotes biofilm resolution in an experimental model (chinchilla host) of OM. Diluent or 5 μg rHMGB1 or mHMGB1 were delivered directly to middle ears of chinchillas at 4 and 5 days post infection with NTHI. Animals were sacrificed 24 h later, and their middle ears were imaged (FIG. 39A) and blindly scored (FIG. 39B) based on the criteria described in the bottom of (FIG. 39A). Bars represent SEM. ***P<0.001.

With `[Cl][Ce]([Cl])[Cl]` [CeCl3, cerium chloride] the “induction of Z-DNA in genomic DNA” value (genomic DNA / poly(dGdC); gDNA 2 μg/mL, spd 300 μM + HU 500 nM, 2 h at 37° C., or increased concentrations of CeCl3) was “synergized to induce Z-DNA”, the “Z-DNA abundance in NTHI biofilm” value [1] was “increased Z-DNA abundance” and the “NTHI biofilm formation / development” value (preformed NTHI biofilms [2]) was “increased Z-DNA and biofilm formation”.

For `[Cl-].[Cl-].[Mg+2]` [MgCl2], the “compensation of phosphocellulose effect on NTHI biofilm” value (“compensation” for short) (preformed NTHI biofilms [3]; MgCl2 0-10 mM for 16 hrs) was “can partially compensate for the disruptive effect of phosphocellulose; also recorded: rescues the negative effect of phosphocellulose on NTHI biofilm stability”.

In the case of `CCN(CC)CCCC(C)Nc1ccnc2cc(Cl)ccc12` (centres unmarked) [chloroquine], the “B-DNA to Z-DNA transition of poly(dGdC)” value (genomic DNA / poly(dGdC); chloroquine 100 μM with NaCl 3.6 M) is reported as “prevents the transition of B-DNA to Z-DNA”, the “Z-DNA abundance in NTHI biofilm” value [1] is reported as “decreased Z-DNA abundance; also recorded: reduced Z-DNA” and the “NTHI biofilm formation / development” value (preformed NTHI biofilms [2]) is reported as “reduced Z-DNA and biofilm development”.

`NCCCCNCCCN` [spermidine] was tested, and the “compensation” value (preformed NTHI biofilms [3]; spermidine 0-5 mM for 16 hrs) was “can partially compensate for the negative effect of phosphocellulose”, the “compensation” value (preformed NTHI biofilms [3]; spermidine 0-5 mM for 16 hrs, listed as Spermidine) was “rescues the negative effect of phosphocellulose on NTHI biofilm stability” and the “rescue of biofilm formation in dicyclohexylamine-treated NTHI biofilms” value [4] was “defects in biofilm biogenesis could be compensated for; also recorded: restored normal biofilm thickness, biomass, and roughness; also recorded: able to rescue biofilm growth”. For the same molecule, the “rescue of biofilm formation in dicyclohexylamine-treated NTHI biofilms” value ([4]; listed as Spd) was “restored biofilm formation”, the “concentration protecting gDNA from DNase individually” value (NTHI genomic DNA (gDNA)) was over 100 µM and the “concentration inhibiting gDNA digestion synergistically when admixed” value (NTHI genomic DNA (gDNA); admixed with HU) was under 50 µM. The “restoration of P11-depleted biofilm by HU or spermidine individually” value (NTHI biofilms; 1% P11, 1 mM spermidine or 1 μM HU, data not shown) was “insufficient” and the “restoration of cation-depleted biofilms by spermidine alone” value (NTHI biofilms; 1.5% P11, 100, 500 or 1000 μM spermidine, 16 hrs) was “alone can restore cation-depleted biofilms in a dose-dependent manner; also recorded: reduces the cation depletion effects of P11 phosphocellulose”.

B1: NucB: nuclease that prevents biofilm formation (Table 1) (protein, UniProt P42983 29-136, looked up)
Sporulation-specific …: SYDKVLYFPLSRYPETGSHIRDAIAEGHPDICTIDRDGADKRREESLKGIPTKPGYDRDEWPMAVCEEGGAGADVRYVTPSDNRGAGSWVGNQMSSYPDGTRVLFIVQ
In the case of B1, the “Spd inhibition: spermidine concentration where nuclease was reduced to <10% activity on genomic DNA” value (genomic DNA) is reported as over 10 mM.

B2: non-inflammatory HMGB1 variant: mHMGB1, a C45 S non-inflammatory variant (protein, UniProt P09429 1-215, looked up, variant C45S)
High mobility group protein B1: MGKGDPKKPRGKMSSYAFFVQTCREEHKKKHPDASVNFSEFSKKSSERWKTMSAKEKGKFEDMAKADKARYEREMKTYIPPKGETKKKFKDPNAPKRPPSAFFLFCSEYRPKIKGEHPGLSIGDVAKKLGEMWNNTAADDKQPYEKKAAKLKEKYEKDIAAYRAKGKPDAAKKGVVKAEKSKKKKEEEEDEEDEEDEEEEEDEEDEDEEEDDDDE
B2 was tested, and the “resolution of middle ear NTHI biofilms” value [5] was “efficient resolution of adherent biofilms”.
